Assay results from BindingDB's records for doi:10.1074/jbc.M113.457119 (Institut National De Recherche Agronomique (Inra)-Vetagro …, 2013).
Substitutions are numbered along the chain they refer to. pKi: −log10 of the molar value.

Key:
Test in all cases: VKOR Activity Assay
Settings in all cases: pH 7.4; 37 °C
[1] = target: T1, Vitamin K epoxide reductase complex subunit 1-like protein 1 (Homo sapiens, UniProt Q8N0U8)
T1 sequence (Q8N0U8 whole entry): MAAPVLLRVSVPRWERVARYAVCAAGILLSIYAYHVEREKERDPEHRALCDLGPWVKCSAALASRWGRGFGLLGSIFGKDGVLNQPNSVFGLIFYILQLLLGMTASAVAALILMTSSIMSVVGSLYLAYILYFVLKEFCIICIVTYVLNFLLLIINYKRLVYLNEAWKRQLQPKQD
Procedure: (§1) Briefly, standard reactions were performed in 200 mM Hepes buffer, pH 7.4, containing 150 mM KCl, 1 mM dithiothreitol, 0.25 to 2 g liter-1 of total proteins containing membrane VKORC1. The reaction was started by the addition of vit K1>O solution in 1% Triton X-100 and incubated at 37 °C for 30 min. […] After incubation at 37 °C for 30 min, the reaction was stopped by adding 4 ml of iced 1:1 isopropyl alcohol/hexane solution. After centrifugation at 5000 x g for 10 min, the hexane layer was removed and driedunder nitrogen. The dry residue was immediately dissolved in 0.2 ml of isopropyl alcohol, and the reaction product was analyzed by liquid chromatography-mass spectrometry.

[2] = target: T2, Vitamin K epoxide reductase complex subunit 1 (Rattus norvegicus, UniProt Q6TEK4)
T2 sequence (Q6TEK4 whole entry): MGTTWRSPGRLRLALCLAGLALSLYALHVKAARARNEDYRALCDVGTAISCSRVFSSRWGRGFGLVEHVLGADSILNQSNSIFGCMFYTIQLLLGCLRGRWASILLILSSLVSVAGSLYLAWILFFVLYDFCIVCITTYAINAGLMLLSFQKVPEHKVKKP
Procedure: as §1

[3] = target: T3, Vitamin K epoxide reductase complex subunit 1-like protein 1 (Rattus norvegicus, UniProt Q6TEK3)
T3 sequence (Q6TEK3 whole entry): T1 sequence (Q8N0U8 whole entry) with I112V, M119V, I143V, V144T, Q175E
Procedure: as §1

CC(=O)C[C@H](c1ccccc1)c1c(O)c2ccccc2oc1=O [2-hydroxy-3-(3-oxo-1-phenylbutyl)-4H-chromen-4-one] showed a pKi [1] of 4.28, a pKi [2] of 6.22 and a pKi [3] of 4.49.
